Source: patent publication US5336485A, “Method for protecting animals against tacrine induced cytotoxic injury using sterol compounds” (priority 1993, dated 1994)
Structures can show the parent of a compound that is named as a salt.

What was measured:
liver = assay: Partial liver ischemia/reperfusion-induced injury in rats; format: in vivo, rat
Procedure: 20 hours prior to global occlusion, one group of 10 rats was provided with 64 mg cholesterol/kg body weight and 100 mg tris succinate/kg body weight by i.p. injection, and another group of 10 rats was provided with 100 mg cholesteryl succinate/kg body weight. A control group of rats was only partially occluded for the one hour period. Ninety percent of the rats pretreated with cholesteryl succinate tris salt survived while only 10% of those pretreated with the combination of cholesterol and tris succinate survived. Table 22 of a partial ischemia study where male Sprague-Dawley rats were subjected to occlusion of the blood supply to the left lateral and median lobes of the liver for 60 minutes followed by reperfusion for 24 hours. During this time, the normal blood supply to the other lobes of the liver was maintained. […] Serum was obtained for AST and ALT measurements.
^a Partial liver ischemia was induced in male Sprague Dawley rats

rat hepatocytes [1] = assay: EMS-induced lipid peroxidation in rat hepatocyte suspensions; format: cell-based; details: 50 mM EMS
rat hepatocytes [2] = assay: Cellular alpha-tocopherol and tocopherol ester content of rat hepatocytes; details: for Hepatocyte Concentration Alpha-T / Hepatocyte Concentration Alpha-TS: EMS 3 h
Procedure: At each time-point, rapid separation of viable from non-viable hepatocytes and medium was accomplished by the dibutyl phthalate centrifugation method. Cell viability was monitored hourly by measuring LDH leakage with a Cobas Analyzer and intracellular [K^+ ]with a flame photometer. LDH was routinely measured in the medium while intracellular K^+ was measured in the 10% perchloric acid lysate of viable cells. Lipid peroxidation was determined by measuring TBA reactants in the medium. […] The samples were diluted with 0.3 ml 1% ascorbate in 0.1 M SDS, 0.4 ml ethanol, sonicated and extracted once with 0.8 ml hexane. Next, the hexane extract was evaporated to dryness with N2, the residue dissolved in 2.5% ascorbate in methanol (1 ml) and analyzed (100 μl) by high-performance liquid chromatograph (HPLC). […] The mobile phase, 95% MeOH was run isocratically and the HPLC retention times for delta and alpha-tocopherol were approximately eleven and sixteen minutes, respectively. […] Following the addition of 0.2 ml 4 M HC1, the neutralized KOH-MeOH extracted with 0.8 ml hexane. […] A standard curve for each tocopherol congener was run with every assay. […] Only viable cells were monitored in the laboratory procedures.
The hepatocytes were subsequently exposed to 50mM EMS for three hours.

Sprague-Dawley rats = assay: Paraquat lethality in rats; details: rat, in vivo
Procedure: Rats received a 100 mg/kg (ip) dose of alpha-TS twenty four hours prior to a 40 mg/kg (ip) insult of paraquat which is a lung specific toxic agent. The rats also received a 100 mg/kg (ip) dose of alpha-TS each day after the paraquat insult.

skin lesion = assay: Topical treatment of dermal injury in a human; format: in vivo
Procedure: In one case, the middle knuckle of the left hand of a person was injured by the removal of a small wart with liquid nitrogen. Two months following the liquid nitrogen insult, the injured area (approximately 1 cm in diameter) was characterized by scar tissue raised several millimeters above the surrounding normal skin. At this time, the lesion was treated by wetting the injured area with alpha-TS dissolved in dimethyl sulfoxide (100mg/ml), daily for a period of two weeks. […] One year following the last alpha-TS treatment, the once injured area remains indistinguishable from the surrounding normal tissue. In another case, a person's lip was severely sunburned. Topical lip cremes and antibiotic cremes were used for several weeks following the ultraviolet insult with minimal therapeutic benefit. At this time, the lesion was treated by wetting the injured area with alpha-TS dissolved in dimethyl sulfoxide (100mg/ml) daily for a period of 1 week. […] In another case, the arch of the left foot of a person was inflamed and blistered from contact dermatitis or stress dermatitis. Six months after unsuccessful treatment on this lesion with betamethasone, the injured area was treated by wetting the injured area with alpha-TS dissolved in dimethyl sulfoxide (100 mg/ml) twice daily for a period of 1 week. […] It is also evident from these cases that alpha-TS is the active component that promotes wound healing and prevents scar formation.

CDF1 mice = assay: Doxorubicin lethality in CDF1 mice (normal tissue); format: in vivo, mouse; details: 100 mg/kg ip 20 h prior, DOX 10, 15, 20, 25 mg/kg
Procedure: (§1) The experiments were conducted in accordance with NCI Protocol 1,100. FIGS. 8a-d show the experimental results obtained when male CDF1 mice (n=6) received either vehicle only or 100mg/kg body weight i.p. dose of either alpha-TS or cholesteryl succinate 20 hours prior to DOX administration. FIGS. 8a-d respectively show the results obtained when the mice received 10, 15, 20, and 25 mg DOX/kg body weight. […] FIGS. 9a-d show the experimental results obtained when male CDF1 mice ([…]) were injected (i.p.) with 10^6 murine L1210 leukemia cells followed immediately by an injection of alpha-TS tris salt (100 mg/kg, i.p.) or saline injection (vehicle), and twenty hours later (Day=0) each mouse in three of the groups was i.p. injected with 15, 20, or 25 mg DOX/kg body weight ([…]). Survival was monitored for twenty days.

L1210 leukemia cells = assay: Doxorubicin in L1210 leukemia bearing CDF1 mice; format: in vivo, mouse; details: alpha-TS tris salt 100 mg/kg ip
Procedure: as §1

[3] = test system: mouse neuroblastoma cells NBP2; details: 10 μM; cited from earlier work
human prostate cells = details: 10 μM; cited from earlier work
variety of cell types = details: cited from earlier work
rat hepatocytes [4] = details: cited from earlier work
[5] = 100 mg/kg ip, 20 hours prior to ischemia
[6] = 50 mM EMS + 25 μM alpha-TS + 100 μM Bis-(p-nitrophenyl) phosphate
[7] = 50 mM EMS + 25 μM alpha-TS + 100 μM Diethyl p-nitrophenyl phosphate

CC(C)CCC[C@@H](C)[C@H]1CC[C@H]2[C@@H]3CC=C4C[C@@H](OC(=O)CCC(=O)O)CC[C@]4(C)[C@H]3CC[C@]12C [Cholesteryl Succinate tris salt]
ALT (liver; 25 mg/kg ip, vehicle 1027±235): 358±38
ALT (liver; [5]): 554 ± 213 Units/L
AST (liver; [5]): 1800 ± 904 Units/L
ALT (liver; 100 mg/kg ip, during ischemia): 387 ± 155 Units/L
AST (liver; 100 mg/kg ip, during ischemia): 967 ± 68 Units/L
protection in fed and fasted rats (liver; rat, in vivo): Protection was observed for both fed and fasted rats

Cc1c(C)c2c(c(C)c1OC(=O)CCC(=O)O)CC[C@@](C)(CCC[C@H](C)CCC[C@H](C)CCCC(C)C)O2 [alpha-TS, d-alpha-tocopheryl succinate]
Lipid Peroxidation (rat hepatocytes [1]; 5 Hrs, concentrations as cell death (Table 15)): 0.9 nmolMDA/10^6 cells
inhibition at 25 µM (rat hepatocytes [1]; Rattus norvegicus, Hepatocyte, 25 μM): 100%
cellular alpha-TS content (rat hepatocytes [2]; 0.5 μM): approximately 0.025 nmoles/10^6 cells
Hepatocyte Concentration Alpha-T (rat hepatocytes [2]; 2.0 μM): 0.4 ± 0.1 nmol/10^6 cells
Hepatocyte Concentration Alpha-TS (rat hepatocytes [2]; 2.0 μM): 0.2 ± 0.1 nmol/10^6 cells
Hepatocyte Concentration Alpha-T (rat hepatocytes [2]; 10 μM): 0.8 ± 0.1 nmol/10^6 cells
Hepatocyte Concentration Alpha-TS (rat hepatocytes [2]; 10 μM): 0.7 ± 0.1 nmol/10^6 cells
cellular accumulation rate of alpha-TS (rat hepatocytes [2]; 25 μM dose): 1.65 nmol/10^6 cells/hr
cellular release rate of succinate (as measured by alpha-tocopherol release) (rat hepatocytes [2]; 25 μM dose): 0.65 nmol/10^6 cells/hr
Hepatocyte Concentration Alpha-T (rat hepatocytes [2]; 25 μM): 0.9 ± 0.1 nmol/10^6 cells
Hepatocyte Concentration Alpha-TS (rat hepatocytes [2]; 25 μM): 2.5 ± 0.1 nmol/10^6 cells
Cellular Tocopherol ester (rat hepatocytes [2]; 25 μM, Table 2): 2.6 nmoles/10^6 cells
Cellular alpha-T (rat hepatocytes [2]; 25 μM, Table 2): 0.7 nmoles/10^6 cells
Hepatocyte Concentration Alpha-T (rat hepatocytes [2]; 250 μM): 0.9 ± 0.1 nmol/10^6 cells
Hepatocyte Concentration Alpha-TS (rat hepatocytes [2]; 250 μM): 7.6 ± 1.7 nmol/10^6 cells
Cellular alpha-T (rat hepatocytes [2]; 50 mM EMS + 25 μM alpha-TS): .81 ± .05 nmoles/10^6 cells
Cellular alpha-TS (rat hepatocytes [2]; 50 mM EMS + 25 μM alpha-TS): 2.73 ± .67 nmoles/10^6 cells
Cellular alpha-T (rat hepatocytes [2]; [6]): .20 ± .05 nmoles/10^6 cells
Cellular alpha-TS (rat hepatocytes [2]; [6]): 2.61 ± .61 nmoles/10^6 cells
Cellular alpha-T (rat hepatocytes [2]; [7]): .19 ± .05 nmoles/10^6 cells
Cellular alpha-TS (rat hepatocytes [2]; [7]): 2.56 ± .24 nmoles/10^6 cells
Hepatocyte Concentration Alpha-T (rat hepatocytes [2]; .5 μM): 0.2 ± 0.1 nmol/10^6 cells
survival time of paraquat exposed rats (Sprague-Dawley rats): 6 days
healing of sunburned lip (skin lesion; topical 100 mg/ml in DMSO daily, 1 week): rapid healing of the lip without scar formation
healing of injured area (liquid nitrogen) (skin lesion; topical 100 mg/ml in DMSO daily, two weeks): rapid healing of the injured area with the elimination of scar tissue
healing of foot lesion (dermatitis) (skin lesion; topical 100 mg/ml in DMSO twice daily, 1 week): rapid healing of the foot lesion with the dissolution of both inflammation and blisters
survival after DOX, normal mice (FIGS. 8a-d) (CDF1 mice): survived significantly longer
survival of DOX treated tumor bearing mice (FIG. 9b) (L1210 leukemia cells; DOX 10 mg/kg): no effect on the survival of DOX treated animals
survival of tumor bearing mice at higher DOX (L1210 leukemia cells; DOX 15 and 25 mg/kg): significant protection from DOX
tumor cell growth [3]: inhibits tumor cell growth
tumor cell growth (human prostate cells): inhibits tumor cell growth
protection against carcinogenic effects of radiation and cancer causing chemicals (variety of cell types): protects a variety of cell types against the carcinogenic effects of radiation and cancer causing chemicals
cytoprotective effect at 3.5 mM Ca2+ (rat hepatocytes [4]; 3.5 mM Ca2+): eliminated the cytoprotective effect
protection of rat hepatocytes from toxic effects of drugs (rat hepatocytes [4]; Ca2+ free medium): protected from the toxic effects of drugs
